Each structure is given as a SMILES string. *1 amine or outer side, *2 acyl side, *3 side chain or, on linkers, in order; H or OH if unused. Where a SMILES comes first, the peptide text is derived from it. Side-chain parts run from the residue outwards. [ ]: non-standard residue; d: D form. The star is where a group is joined. C16 diacid = O=C(O)CCCCCCCCCCCCCCC(=O)*; γGlu = O=C(O)[C@H](CCC(=O)[*:2])N[*:1]; NMeI = CC[C@H](C)[C@H](NC)C(=O)O; Api = NC1(C(=O)O)CCNCC1; Aib = CC(C)(N)C(=O)O; Propionyl = CCC(=O)*

From patent US20260001928A1 (CORTERIA PHARMACEUTICALS, priority 2022, published 2026) come the findings set out here.

One test has as its target T1, CFR1R receptor (Homo sapiens, UniProt P34998).
T1 construct: host or cells: CHO-K1 (clone 2)
T1 sequence (P34998 24-415): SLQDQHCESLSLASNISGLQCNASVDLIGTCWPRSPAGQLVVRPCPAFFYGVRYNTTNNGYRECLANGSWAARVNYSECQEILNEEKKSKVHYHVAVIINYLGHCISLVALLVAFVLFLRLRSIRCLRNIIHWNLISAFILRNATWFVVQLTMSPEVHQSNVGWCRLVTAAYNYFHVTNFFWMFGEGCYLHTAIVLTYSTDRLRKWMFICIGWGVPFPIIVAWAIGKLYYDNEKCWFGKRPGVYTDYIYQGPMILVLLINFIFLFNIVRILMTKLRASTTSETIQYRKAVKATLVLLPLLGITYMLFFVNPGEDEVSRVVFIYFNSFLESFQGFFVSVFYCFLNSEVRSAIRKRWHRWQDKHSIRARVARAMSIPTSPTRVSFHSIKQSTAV
Kind of test: Activity at anti-target CFR1R receptor, cAMP assay in CRF1R-overexpression CHO-K1 cells. Conditions: 100% = Sauvagine at 100 nM; for EC50: cAMP. Type of test: cell-based. The gist of the method: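 Signal is normalised to 100 nM Sauvagine, taken as 100% activation, in clone 2 cells plated at a final 4000 cells/well from frozen stocks.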
On the technique in general: Cyclic AMP is a second messenger, typically raised through Gs and lowered through Gi signalling.

The target of the next test is T2, human CRF2a receptor (Homo sapiens, UniProt Q13324).
T2 construct: expressed in transfected cells; host or cells: TeloHEAC cells
T2 sequence (Q13324 1-411): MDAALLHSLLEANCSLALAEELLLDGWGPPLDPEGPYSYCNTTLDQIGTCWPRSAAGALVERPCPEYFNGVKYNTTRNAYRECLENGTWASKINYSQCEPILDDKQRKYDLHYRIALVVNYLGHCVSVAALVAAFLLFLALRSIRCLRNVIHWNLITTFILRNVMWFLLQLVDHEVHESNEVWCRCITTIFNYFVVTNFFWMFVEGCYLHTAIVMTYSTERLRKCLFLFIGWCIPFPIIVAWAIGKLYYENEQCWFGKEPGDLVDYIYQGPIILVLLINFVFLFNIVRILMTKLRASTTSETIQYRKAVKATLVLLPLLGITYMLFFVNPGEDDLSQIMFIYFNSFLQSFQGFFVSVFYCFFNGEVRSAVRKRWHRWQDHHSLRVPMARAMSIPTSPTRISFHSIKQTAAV
Description: Activity at human CRF2a receptor, cAMP functional assay in TeloHEAC cells. Type of test: cell-based. The settings on record: TeloHEAC cells stably expressing human CRF2a receptor, relative to urocortin 2 (100 nM = 100%). The gist of the method: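 cAMP accumulation was measured by HTRF 665/620 nm ratio after 30 min at 37° C compound exposure (16 twofold dilutions) of CRF2a-expressing TeloHEAC cells, 10000/well, in HEPES-buffered HBSS plus IBMX. Activity was normalised to urocortin 2 at 100 nM (100%), and EC50 was the concentration giving half-maximal activation.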

With `CC[C@H](C)[C@H](NC)C(=O)N[C@H](C(=O)N[C@@H](CC(C)C)C(=O)N[C@@H](CO)C(=O)N[C@@H](CC(C)C)C(=O)N[C@@H](CC(=O)O)C(=O)N[C@@H](C(=O)N1CCC[C@H]1C(=O)N[C@H](C(=O)N[C@@H](CCCCN)C(=O)N[C@@H](CC(C)C)C(=O)N[C@@H](CCCCNC(=O)CC[C@H](NC(=O)CCCCCCCCCCCCCCC(=O)O)C(=O)O)C(=O)N[C@@H](CCCCN)C(=O)N[C@H](C(=O)N[C@@H](CC(C)C)C(=O)N[C@@H](CC(C)C)C(=O)N[C@@H](CCC(=O)O)C(=O)N[C@@H](CCC(N)=O)C(=O)N[C@@H](CCC(=O)O)C(=O)N[C@@H](CCCCN)C(=O)N[C@@H](CCC(N)=O)C(=O)N[C@@H](CCCCN)C(=O)N[C@@H](CCCCN)C(=O)N[C@@H](CCC(N)=O)C(=O)N[C@@H](CCCNC(=N)N)C(=O)N[C@@H](CCC(=O)O)C(=O)N[C@@H](CCC(N)=O)C(=O)N[C@@H](C)C(=O)N[C@@H](CCC(=O)O)C(=O)N[C@H](C(=O)N[C@@H](CC(N)=O)C(=O)N[C@@H](CCC(=O)O)C(=O)N[C@@H](CCC(N)=O)C(=O)N[C@H](C(=O)N[C@@H](CC(C)C)C(=O)N[C@@H](C)C(=O)N[C@@H](CCC(N)=O)C(=O)N[C@H](C(N)=O)C(C)C)[C@@H](C)CC)[C@@H](C)O)[C@@H](C)CC)[C@@H](C)CC)C(C)C)C(C)C` [compound 71] (H-[NMeI]VLSLD[dV]PIKLK([γGlu-C16 diacid])KILLEQEKQKKQREQAETNEQILAQV-NH2), the “Emax (% I)” value on CFR1R receptor is listed as −4 % I. Moreover, the concentration giving a half-maximal response (EC50) (usually the midpoint of the concentration-response curve) was above 250 nM on CFR1R receptor and 0.21 nM on human CRF2a receptor.

On to `CC[C@H](C)[C@H](NC)C(=O)N[C@H](C(=O)N[C@@H](CC(C)C)C(=O)N[C@@H](CO)C(=O)N[C@@H](CC(C)C)C(=O)N[C@@H](CC(=O)O)C(=O)N[C@@H](C(=O)N1CCC[C@H]1C(=O)N[C@H](C(=O)N[C@@H](CCCCN)C(=O)N[C@@H](CC(C)C)C(=O)N[C@@H](CCCCNC(=O)CC[C@H](NC(=O)CCCCCCCCCCCCCCC(=O)O)C(=O)O)C(=O)N[C@@H](CCCCN)C(=O)N[C@H](C(=O)N[C@@H](CC(C)C)C(=O)N[C@@H](CC(C)C)C(=O)N[C@@H](CCC(=O)O)C(=O)N[C@@H](CCC(N)=O)C(=O)N[C@@H](CCC(=O)O)C(=O)N[C@@H](CCCCN)C(=O)N[C@@H](CCC(N)=O)C(=O)N[C@@H](CCCCN)C(=O)N[C@@H](CCCCN)C(=O)N[C@@H](CCC(N)=O)C(=O)N[C@@H](CCCNC(=N)N)C(=O)N[C@@H](CCC(=O)O)C(=O)N[C@@H](CCC(N)=O)C(=O)N[C@@H](C)C(=O)N[C@@H](CCC(=O)O)C(=O)N[C@H](C(=O)N[C@@H](CC(N)=O)C(=O)NC1(C(=O)N[C@@H](CCC(N)=O)C(=O)N[C@H](C(=O)N[C@@H](CC(C)C)C(=O)N[C@@H](C)C(=O)N[C@@H](CCC(N)=O)C(=O)N[C@H](C(N)=O)C(C)C)[C@@H](C)CC)CCNCC1)[C@@H](C)O)[C@@H](C)CC)[C@@H](C)CC)C(C)C)C(C)C` [compound 72] (H-[NMeI]VLSLD[dV]PIKLK([γGlu-C16 diacid])KILLEQEKQKKQREQAETN[Api]QILAQV-NH2), for which the “Emax (% I)” value at CFR1R receptor is on record as 18 % I. The results for the EC50 at CFR1R receptor and on human CRF2a receptor were above 250 nM and 0.14 nM, respectively.

For the compound `CC[C@H](C)[C@H](NC)C(=O)N[C@H](C(=O)N[C@@H](CC(C)C)C(=O)N[C@@H](CO)C(=O)N[C@@H](CC(C)C)C(=O)N[C@@H](CC(=O)O)C(=O)N[C@@H](C(=O)N1CCC[C@H]1C(=O)N[C@H](C(=O)N[C@@H](CCCCN)C(=O)N[C@@H](CC(C)C)C(=O)N[C@@H](CCCCNC(=O)CC[C@H](NC(=O)CCCCCCCCCCCCCCC(=O)O)C(=O)O)C(=O)N[C@@H](CCCCN)C(=O)N[C@H](C(=O)N[C@@H](CC(C)C)C(=O)N[C@@H](CC(C)C)C(=O)N[C@@H](CCC(=O)O)C(=O)N[C@@H](CCC(N)=O)C(=O)N[C@@H](CCC(=O)O)C(=O)N[C@@H](CCCCN)C(=O)N[C@@H](CCC(N)=O)C(=O)N[C@@H](CCCCN)C(=O)N[C@@H](C)C(=O)N[C@@H](CCC(N)=O)C(=O)N[C@@H](CCCNC(=N)N)C(=O)N[C@@H](CCC(=O)O)C(=O)N[C@@H](CCC(N)=O)C(=O)N[C@@H](C)C(=O)N[C@@H](CCC(=O)O)C(=O)N[C@H](C(=O)N[C@@H](CC(N)=O)C(=O)NC(C)(C)C(=O)N[C@@H](CCC(N)=O)C(=O)N[C@H](C(=O)N[C@@H](CC(C)C)C(=O)N[C@@H](C)C(=O)N[C@@H](CCC(N)=O)C(=O)N[C@H](C(N)=O)C(C)C)[C@@H](C)CC)[C@@H](C)O)[C@@H](C)CC)[C@@H](C)CC)C(C)C)C(C)C` [compound 74] (H-[NMeI]VLSLD[dV]PIKLK([γGlu-C16 diacid])KILLEQEKQKAQREQAETN[Aib]QILAQV-NH2), at CFR1R receptor, the “Emax (% I)” value is recorded as 7 % I and the 50% effective concentration (EC50) was above 250 nM. Moreover, the EC50 at human CRF2a receptor was 0.15 nM.

With `CC[C@H](C)[C@H](NC)C(=O)N[C@H](C(=O)N[C@@H](CC(C)C)C(=O)N[C@@H](CO)C(=O)N[C@@H](CC(C)C)C(=O)N[C@@H](CC(=O)O)C(=O)N[C@@H](C(=O)N1CCC[C@H]1C(=O)N[C@H](C(=O)N[C@@H](CCCCN)C(=O)N[C@@H](CC(C)C)C(=O)N[C@@H](CCCCNC(=O)CC[C@H](NC(=O)CCCCCCCCCCCCCCC(=O)O)C(=O)O)C(=O)N[C@@H](CCCCN)C(=O)N[C@H](C(=O)N[C@@H](CC(C)C)C(=O)N[C@@H](CC(C)C)C(=O)N[C@@H](CCC(=O)O)C(=O)N[C@@H](CCC(N)=O)C(=O)N[C@@H](CCC(=O)O)C(=O)N[C@@H](CCCCN)C(=O)N[C@@H](CCC(N)=O)C(=O)N[C@@H](CCCCN)C(=O)NC(C)(C)C(=O)N[C@@H](CCC(N)=O)C(=O)N[C@@H](CCCNC(=N)N)C(=O)N[C@@H](CCC(=O)O)C(=O)N[C@@H](CCC(N)=O)C(=O)N[C@@H](C)C(=O)N[C@@H](CCC(=O)O)C(=O)N[C@H](C(=O)N[C@@H](CC(N)=O)C(=O)NC(C)(C)C(=O)N[C@@H](CCC(N)=O)C(=O)N[C@H](C(=O)N[C@@H](CC(C)C)C(=O)N[C@@H](C)C(=O)N[C@@H](CCC(N)=O)C(=O)N[C@H](C(N)=O)C(C)C)[C@@H](C)CC)[C@@H](C)O)[C@@H](C)CC)[C@@H](C)CC)C(C)C)C(C)C` [compound 75] (H-[NMeI]VLSLD[dV]PIKLK([γGlu-C16 diacid])KILLEQEKQK[Aib]QREQAETN[Aib]QILAQV-NH2), at CFR1R receptor, the “Emax (% I)” value amounted to 3 % I and the EC50 is above 250 nM. The same compound yielded an EC50 at human CRF2a receptor of 0.19 nM.

Turning to `CCC(=O)N[C@H](C(=O)N[C@@H](CC(C)C)C(=O)N[C@@H](CO)C(=O)N[C@@H](CC(C)C)C(=O)N[C@@H](CC(=O)O)C(=O)N[C@@H](C(=O)N1CCC[C@H]1C(=O)N[C@H](C(=O)N[C@@H](CCCCN)C(=O)N[C@@H](CC(C)C)C(=O)N[C@@H](CCCCNC(=O)CC[C@H](NC(=O)CCCCCCCCCCCCCCC(=O)O)C(=O)O)C(=O)N[C@@H](CCCCN)C(=O)N[C@H](C(=O)N[C@@H](CC(C)C)C(=O)N[C@@H](CC(C)C)C(=O)N[C@@H](CCC(=O)O)C(=O)N[C@@H](CCC(N)=O)C(=O)N[C@@H](CCC(=O)O)C(=O)N[C@@H](CCCCN)C(=O)N[C@@H](CCC(N)=O)C(=O)N[C@@H](CCCCN)C(=O)N[C@@H](CCCCN)C(=O)N[C@@H](CCC(N)=O)C(=O)N[C@@H](CCCNC(=N)N)C(=O)N[C@@H](CCC(=O)O)C(=O)N[C@@H](CCC(N)=O)C(=O)N[C@@H](C)C(=O)N[C@@H](CCC(=O)O)C(=O)N[C@H](C(=O)N[C@@H](CC(N)=O)C(=O)NC(C)(C)C(=O)N[C@@H](CCC(N)=O)C(=O)N[C@H](C(=O)N[C@@H](CC(C)C)C(=O)N[C@@H](C)C(=O)N[C@@H](CCC(N)=O)C(=O)N[C@H](C(N)=O)C(C)C)[C@@H](C)CC)[C@@H](C)O)[C@@H](C)CC)[C@@H](C)CC)C(C)C)C(C)C` [compound 78] (Propionyl-VLSLD[dV]PIKLK([γGlu-C16 diacid])KILLEQEKQKKQREQAETN[Aib]QILAQV-NH2), on CFR1R receptor, the “Emax (% I)” value amounted to 7 % I and the EC50 was above 250 nM. This compound gave an EC50 at human CRF2a receptor of 0.73 nM.
